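Five compound concentrations were applied to cells in 96-well plates for 48 hours; endpoints were derived by simple linear interpolation of the resulting dose-response curve. GI50: concentration for 50% inhibition of growth.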 Activity calls are given as the source filed them. Rule as the data show it: active = GI50 up to about 1.1 µM and inactive = higher.
Experiments:
Assay in all cases: NCI anticancer screen, dose series, 48 h
SF-295 = test system: SF-295
A498 = test system: A498
CCRF-CEM = test system: CCRF-CEM
UACC-257 = test system: UACC-257
U-251 = test system: U-251
MDA-MB-435 = test system: MDA-MB-435
NCI-H23 = test system: NCI-H23
SK-OV-3 = test system: SK-OV-3
EKVX = test system: EKVX
MDA-N = test system: MDA-N
DU-145 = test system: DU-145
SK-MEL-5 = test system: SK-MEL-5
HL-60 = test system: HL-60
SR = test system: SR
Malme-3M = test system: Malme-3M
RXF 393 = test system: RXF 393
OVCAR-4 = test system: OVCAR-4
SNB-19 = test system: SNB-19
LOX IMVI = test system: LOX IMVI
OVCAR-8 = test system: OVCAR-8

Measured: GI50

C=C(C)[C@@]12C[C@H](OC(=O)[C@H](O)[C@@H](NC(=O)c3ccccc3)c3ccccc3)C(C)=C1[C@@H](OC(C)=O)C(=O)[C@@]1(C)C([C@@H]2OC(=O)c2cc(F)cc(F)c2)C2(OC(C)=O)CO[C@@H]2C[C@@H]1O (stereo not given in full)
active: A498 164 nM | CCRF-CEM 36.7 nM | UACC-257 79.6 nM | U-251 82.2 nM | MDA-MB-435 11.7 nM | NCI-H23 152 nM | SK-OV-3 417 nM | EKVX 1020 nM | MDA-N 13.3 nM | DU-145 267 nM | SK-MEL-5 117 nM | HL-60 26.9 nM | SR 169 nM | Malme-3M 461 nM | RXF 393 57.8 nM | SNB-19 238 nM | LOX IMVI 79.1 nM | OVCAR-8 65 nM
inactive: SF-295 > 10000 nM | OVCAR-4 2380 nM
